From patent US20200121801A1, “DRUG DELIVERY CONJUGATES CONTAINING UNNATURAL AMINO ACIDS AND METHODS FOR USING” (priority 2012, published 2020)

Assays:
[1] = Relative whole animal toxicity in folate deficient rats; type: in vivo; settings: 3 μmol/kg i.v. BIW, 2 weeks
Method: EXAMPLE. […] Test compounds are administered i.v. at equivalent doses to folate deficient rats.

[2] = tested on: experimental autoimmune encephalomyelitis; test: Autoimmune encephalomyelitis (EAE) model; type: in vivo, rats; settings: when dosed alone
Method: METHOD. Autoimmune Encephalomyelitis (EAE) Model. EAE is induced in rats by immunization against 25 μg of guinea pig myelin basic protein (MBP) formulated with CFA containing 1 mg of grounded Mycobacterium tuberculosis H37Ra. Pertussis toxin is given intraperitoneally (1 μg/rat) to enhance the organ-specific autoimmunity. Starting 8 days after induction, rats are divided into […]: (1) untreated control (n=8), (2) test compound (n=7), and (3) test compound plus competitor compound (n=7), such as EC0923 competition. All treatments start on day 8 after EAE induction. The animals in the EAE control group are left untreated. […] The clinical severity of EAE is monitored on a daily basis and graded on a scale of 0 to 5 per animal. The clinical signs of ascending paralysis of EAE rats are divided into a 0-5 scale: 0=No disease, 0.5=distal limp tail, 1=limp tail, 2=mild paraparesis; ataxia-weakened hind limbs, 3=moderate paraparesis; hind limbs paresis, 4=complete hind limb paralysis, 5=complete hind limb paralysis and incontinence (euthanasia). On day 16, the animals are euthanized and brain and spinal cords are fixed in formalin for histology.

[3] = Plasma stability / free drug release after s.c. dose (EC1496 vs EC0746); type: in vivo, rats; settings: 500 nmol/kg s.c.
Method: METHOD. Human serum stability. Compounds described herein are tested in human serum for stability using conventional protocols and methods. Briefly, test compound is administered to the test animal, such as by subcutaneous injection. The plasma concentration of the conjugate, and optionally one or more metabolites, is monitored over time. The results are graphed to determine Cmax, Tmax, half-life, and AUC for the test compound and metabolites.
EXAMPLE. […] EC1495 and EC0746 (comparator compound) are each administered at 500 nmol/kg by subcutaneous injection. The plasma concentration of the conjugate and the metabolites (aminopterin and aminopterin hydrazide) are monitored over time. […] As also shown in the following table, free drug is released as the parent aminopterin and the hydrazide derivative (EC0470).

[4] = Cytotoxicity of unconjugated tubulysins to cells in culture; type: cell-based; settings: cells in culture (cell line not given); read-out: typical IC50, cytotoxic to cells in culture
[5] = tested on: KB tumors; test: Inhibition of tumor growth, s.c. KB tumors in nu/nu mice; type: in vivo; settings: 1.0 μmol/kg (only 2 doses due to toxicity), TIW, 2 weeks
Method: METHOD. Inhibition of Tumor Growth in Mice. […] For tumor cell inoculation, 1×10^6 M109 cells (a syngeneic lung carcinoma) in Balb/c strain, or 1×10^6 KB cells in nu/nu strain, in 100 μL are injected in the subcutis of the dorsal medial area (right axilla).
METHOD. Toxicity as Measured by Weight Loss. The percentage weight change of the test animals is determined on selected days post-tumor inoculation (PTI), and during dosing. The results are graphed.

[6] = Renal/hepatic secretion study; type: in vivo, mice; settings: 24 h post-dose, s.c.
Method: In a subsequent renal/hepatic secretion study, mice are housed in metabolic cages with a 6-h fast before subcutaneous administration of ^3H-EC1669 or ^3H-MTX. At 24 h post-dose, ˜14% more radioactivity is found in the pooled urine of ^3H-EC1669 dosed animals than in ^3H-MTX dosed animals. In contrast, twice as much radioactivity was found in the pooled feces of ^3H-MTX dosed animals than in EC1669 dosed animals. […] MTX reportedly causes hepatotoxicity as a major side effect, especially after long-term use. Without being bound by theory, it is believed herein that the preferential renal clearance of the compounds described herein will lead to fewer side effects such as hepatotoxicity.

[7] = Pharmacokinetic biodistribution of 3H-EC1669 and 3H-methotrexate; type: in vivo, Balb/c mice
Method: METHOD. Pharmacokinetic biodistribution. Studies in this section included a minimum of 3 test animals (mice) per time point. The pharmacokinetic biodistribution of test compound, such as ^3H-EC1669 (label on the drug), compared to positive control, such as ^3H-methotrexate (^3H-MTX), is observed in female Balb/c mice on folate-deficient diet. Compounds are administered as a single subcutaneous (SC) injection at 500 nmol/kg. Whole blood (>300 μL) along with ˜100 mg each of various tissues of interests are collected at various time points (such as 10 min, 30 min, 1 h, 2 h, 4 h, 8 h, 12 h, 24 h, and 72 h). The blood samples are placed in BD microtainer tubes (heparin) and centrifuged (4,000 g×3 min, 4° C.) to separate plasma (>100 μL). The remaining red blood cell (RBC) mass is washed 2× with phosphate buffered saline (PBS, pH 7.4) to obtain RBCs. The collected tissues are weighed and processed to determine ^3H-EC1669 and ^3H-MTX distribution: plasma, RBC, heart, lung, liver (the smallest lobe), spleen, kidney (1), intestine (above cecum), fecal material (from colon), muscle, and brain.

[8] = tested on: KB-CR2000 (cisplatin resistant) tumors; test: Cisplatin-resistant KB-CR2000 tumor model; type: in vivo, mice; settings: cisplatin 3 mg/kg twice per week, 2 weeks
[9] = 10 min post-dose, 500 nmol/kg s.c.

SMILES: N=c1[nH]c(N)nc2ncc(CNc3ccc(C(=O)N[C@@H](CCC(=O)NNC(=O)OCCSSC[C@@H](NC(=O)[C@H](CCC(=O)NC[C@H](O)[C@@H](O)[C@H](O)[C@H](O)CO)NC(=O)[C@@H](CCC(=O)O)NC(=O)[C@H](CCC(=O)NC[C@H](O)[C@@H](O)[C@H](O)[C@H](O)CO)NC(=O)[C@@H](CCC(=O)O)NC(=O)[C@H](CCC(=O)NC[C@H](O)[C@@H](O)[C@H](O)[C@H](O)CO)NC(=O)CC[C@@H](NC(=O)c4ccc(NCc5cnc6nc(N)[nH]c(=O)c6n5)cc4)C(=O)O)C(=O)O)C(=O)O)cc3)nc12 [EC1496]
- toxicity relative to comparative example EC0746 [1]: less toxic
- treatment-related weight loss [2]: not observed
- Cmax of conjugate, comparison [3]: higher Cmax than EC0746
- half-life, comparison with EC0746 [3]: shorter half-life
- Free drug released (%): AMT ([3]; plasma): 5.13%
- Free drug released (%): AMT-hydrazide (EC0470) ([3]; plasma): 3.15%
- Free drug released (%): Total ([3]; plasma): 8.28%

SMILES: CCCC(=O)OCN(C(=O)[C@@H](NC(=O)[C@H]1CCCCN1C)C(C)CC)[C@H](C[C@@H](OC(C)=O)c1nc(C(=O)N[C@@H](Cc2ccc(O)cc2)C[C@H](C)C(=O)NN)cs1)C(C)C (some centres unmarked) [TubB-H, reference compound]
- IC50 [4]: ~1 nM
- CR [5]: 0%
- Cures [5]: 0%
- PR [5]: 0%
- Toxicity: Avg. Weight Loss [5]: >15%
- Toxicity: Deaths [5]: 20%

SMILES: N=c1[nH]c(N)nc2ncc(CNc3ccc(C(=O)N[C@@H](CCC(=O)NNC(=O)OCCSSC[C@@H](NC(=O)[C@H](CCC(=O)NC[C@H](O)[C@@H](O)[C@H](O)[C@H](O)CO)NC(=O)[C@@H](CCC(=O)O)NC(=O)[C@H](CCC(=O)NC[C@H](O)[C@@H](O)[C@H](O)[C@H](O)CO)NC(=O)[C@@H](CCC(=O)O)NC(=O)[C@H](CCC(=O)NC[C@H](O)[C@@H](O)[C@H](O)[C@H](O)CO)NC(=O)CC[C@H](NC(=O)c4ccc(NCc5cnc6nc(N)[nH]c(=O)c6n5)cc4)C(=O)O)C(=O)O)C(=O)O)cc3)nc12 [^3H-EC1669]
- more radioactivity in pooled urine than in 3H-MTX dosed animals [6]: ~14%
- tissue uptake at 10 min ([7]; female, Balb/c, mouse, plasma, sc, total radioactivity, 10 min post-dose, 500 nmol/kg s.c., read-out: found in the plasma): 12 %ID/g

SMILES: CN(Cc1cnc2nc(N)nc(N)c2n1)c1ccc(C(=O)N[C@@H](CCC(=O)O)C(=O)O)cc1 [^3H-MTX, ^3H-methotrexate]
- radioactivity in pooled feces vs EC1669 dosed animals [6]: twice as much
- captured by the liver [7, 9]: 31 % ID/g
- found in the plasma [7, 9]: 5.2 % ID/g
- retention in RBCs, spleen, liver, intestine, and feces ([7]; entire sampling period): consistently higher than that of ^3H-EC1669

SMILES: N.N.[Cl][Pt][Cl] [cisplatin, reference compound]
- partial response (PR) [8]: did not produce even a single partial response
